Measured values published in patent US20240415819A1, “MACROCYCLIC COMPOUNDS AS PROTEASOME SUBUNIT BETA TYPE-5 INHIBITORS” (Lead Discovery Center GmbH, priority 2021, published 2024).
Like-named read-outs stand apart in the source and are kept apart here.

Key:
[1] = target: T1, β5 subunit of the human constitutive proteasome (CPS) (Homo sapiens, UniProt P28074); assay: β5 inhibition assay, human constitutive proteasome (Suc-LLVY-AMC); type: biochemical; conditions: IC50 class, Suc-LLVY-AMC substrate
T1 construct: purchased Boston Biochem E-360
Protocol: The enzymatic activity of the β5 subunit of the human constitutive proteasome (CPS) is analyzed. In another assay, which differs from the assay of the human constitutive proteasome only in using the human immunoproteasome (IPS) the enzymatic activity of the β5 subunit of the human immunoproteasome (IPS) is analyzed. […] Inhibition is indicated as IC50 [nM] (“-”=not measured).

[2] = target: T2, β5 subunit of the human immunoproteasome (IPS) (Homo sapiens, UniProt P28062); assay: β5 inhibition assay, human immunoproteasome (Suc-LLVY-AMC); type: biochemical; conditions: IC50 class, Suc-LLVY-AMC substrate
T2 construct: purchased Boston Biochem E-370
Summary of the method: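 Human immunoproteasome (1 nM final) was preincubated 10 min at RT with compound in 100 mM HEPES pH 7.5, 50 mM NaCl, 0.02% SDS, 1 mM DTT. Suc-LLVY-AMC (22.6 μM final) was then added for 4 h at RT in the dark. After stopping with 1 μM bortezomib, AMC fluorescence was read (ex 355/em 460 nm).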

[3] = system: A549 (human lung carcinoma cell line); assay: Glo assay of A549 cells (Table 3; ProteasomeGlo plating scheme); type: cell-based; conditions: Homo sapiens
Summary of the method: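 IC50 values (nM) come from a cell-based chymotrypsin-like Proteasome-Glo luminescence assay. Compound exposure ran 105 min at 37° C.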

[4] = system: Hs 746T (human gastric carcinoma cell line); assay: 48 hr CTG viability assay, Hs 746T; type: cell-based; conditions: Hs746T
Summary of the method: (§1)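 Growth inhibition by compound over 48 h; IC50 (nM) derived from duplicate CellTiter-Glo luminescence readings across 0.0015–10 uM.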

[5] = system: MM1 S (B lymphoblast cell line); assay: 48 hr CTG viability assay, MM1S; type: cell-based; conditions: Homo sapiens
Summary of the method: as §1

[6] = system: RPMI 8226 (B lymphocyte cell line, multiple myeloma); assay: 48 hr CTG viability assay, RPMI 8226; type: cell-based; conditions: Homo sapiens
Summary of the method: as §1

[7] = A549 cells, read-out: PGLo A549
[8] = 48 hr CTG, read-out: Hs 746T IC50
[9] = RPMI-8226, 48 hr CTG, read-out: RPMI-8226 IC50

Row | SMILES | IC50 [1] | IC50 [2] | IC50 [3, 7] | IC50 [4, 8] | IC50 ([5]; 48 hr CTG, read-out: MM1S IC50) | IC50 [6, 9] | IC50 ([3]; A549, read-out: PGLo A549 [nM]) | IC50 ([4]; 48 h, read-out: Hs 746T IC50 [nM]) | IC50 ([5]; 48 h, read-out: MM1S IC50 [nM]) | IC50 ([6]; RPMI-8226, 48 h, read-out: RPMI-8226 IC50 [nM])
1 | Cc1ccc2cc1CNC(=O)[C@H](CCc1ccccc1)NC(=O)[C@@H](NC(=O)OC1CCCCC1)CC(=O)N1CCCC(CCO2)C1 (stereo partly drawn) [Compound 632, cyclohexyl ((9S,12S)-5^4-methyl-8,11,14-trioxo-9-phenethyl-4-oxa-7,10-diaza-1(3,1)-piperidina-5(1,3)-benzenacyclotetradecaphane-12-yl)carbamate] | < 100 nM | < 100 nM | < 100 nM | < 100 nM | < 100 nM | < 100 nM | – | – | – | –
2 | Cc1ccc2cc1CNC(=O)[C@H](CCc1ccccc1)NC(=O)[C@@H](NC(=O)Cc1ccccc1)CCOC(=O)N1CCCC(CCO2)C1 (stereo partly drawn) [Compound 624, N-((9S,12S)-5^4-methyl-8,11,16-trioxo-9-phenethyl-4,15-dioxa-7,10-diaza-1(3,1)-piperidina-5(1,3)-benzenacyclohexadecaphane-12-yl)-2-phenylacetamide] | < 100 nM | < 100 nM | < 100 nM | < 100 nM | < 100 nM | < 100 nM | – | – | – | –
3 | Cc1ccc2cc1CNC(=O)[C@H](CCc1ccccc1)NC(=O)[C@@H](NC(=O)C(C)(C)c1ccc3ncccc3c1)CC(=O)N1CCCC(CCO2)C1 (stereo partly drawn) [Compound 609, 2-methyl-N-((9S,12S)-5^4-methyl-8,11,14-trioxo-9-phenethyl-4-oxa-7,10-diaza-1(3,1)-piperidina-5(1,3)-benzenacyclotetradecaphane-12-yl)-2-(quinolin-6-yl)propanamide] | < 100 nM | < 100 nM | < 100 nM | < 100 nM | < 100 nM | < 100 nM | – | – | – | –
4 | Cc1ccc2cc1CNC(=O)[C@H](CCc1ccccc1)NC(=O)[C@@H](NC(=O)CCNCCC1CCCC1)CC(=O)N1CCCC(CCO2)C1 (stereo partly drawn) [Compound 700, 3-((2-cyclopentylethyl)amino)-N-((9S,12S)-5^4-methyl-8,11,14-trioxo-9-phenethyl-4-oxa-7,10-diaza-1(3,1)-piperidina-5(1,3)-benzenacyclotetradecaphane-12-yl)propanamide] | < 100 nM | < 100 nM | < 100 nM | < 100 nM | < 100 nM | < 100 nM | – | – | – | –
5 | Cc1ccc2cc1CNC(=O)[C@H](CCc1ccccc1)NC(=O)[C@@H](NC(=O)CC1COC1)CC(=O)N1CCCC(CCO2)C1 (stereo partly drawn) [Compound 635, N-((9S,12S)-5^4-methyl-8,11,14-trioxo-9-phenethyl-4-oxa-7,10-diaza-1(3,1)-piperidina-5(1,3)-benzenacyclotetradecaphane-12-yl)-2-(oxetan-3-yl)acetamide] | < 100 nM | < 100 nM | < 100 nM | < 100 nM | < 100 nM | < 100 nM | – | – | – | –
6 | Cc1ccc2cc1CNC(=O)[C@H](CCc1ccccc1)NC(=O)[C@@H](NC(=O)Cc1ccc3ncccc3c1)CC(=O)N1CCCC(CCO2)C1 (stereo partly drawn) [Compound 586, N-((9S,12S)-5^4-methyl-8,11,14-trioxo-9-phenethyl-4-oxa-7,10-diaza-1(3,1)-piperidina-5(1,3)-benzenacyclotetradecaphane-12-yl)-2-(quinolin-6-yl)acetamide] | < 100 nM | < 100 nM | < 100 nM | < 100 nM | < 100 nM | < 100 nM | – | – | – | –
7 | COc1cccc(CCOCCC(=O)N[C@H]2CC(=O)N3CCCC(CCOc4ccc(C)c(c4)CNC(=O)[C@H](CCc4ccccc4)NC2=O)C3)c1 (stereo partly drawn) [Compound 581, 3-(3-methoxyphenethoxy)-N-((9S,12S)-5^4-methyl-8,11,14-trioxo-9-phenethyl-4-oxa-7,10-diaza-1(3,1)-piperidina-5(1,3)-benzenacyclotetradecaphane-12-yl)propanamide] | < 100 nM | < 100 nM | < 100 nM | < 100 nM | < 100 nM | < 100 nM | – | – | – | –
8 | Cc1ccc2cc1CNC(=O)[C@H](CCc1ccccc1)NC(=O)[C@@H](NC(=O)CCNCCC1CCC1)CC(=O)N1CCCC(CCO2)C1 (stereo partly drawn) [Compound 693, 3-((2-cyclobutylethyl)amino)-N-((9S,12S)-5^4-methyl-8,11,14-trioxo-9-phenethyl-4-oxa-7,10-diaza-1(3,1)-piperidina-5(1,3)-benzenacyclotetradecaphane-12-yl)propanamide] | < 100 nM | < 100 nM | < 100 nM | < 100 nM | < 100 nM | < 100 nM | – | – | – | –
9 | Cc1ccc2cc1CNC(=O)[C@H](CCc1ccccc1)NC(=O)[C@@H](N1CCCCC1=O)CC(=O)N1CCCC(CCO2)C1 (stereo partly drawn) [Compound 734, (9S,12S)-5^4-methyl-12-(2-oxopiperidin-1-yl)-9-phenethyl-4-oxa-7,10-diaza-1(3,1)-piperidina-5(1,3)-benzenacyclotetradecaphane-8,11,14-trione] | 1000 to 5000 nM | 100 to 500 nM | 1000 to 5000 nM | > 5000 nM | 1000 to 5000 nM | 1000 to 5000 nM | – | – | – | –
10 | Cc1ccc2cc1CNC(=O)[C@H](CCc1ccccc1)NC(=O)[C@@H](NC(=O)C1CC3(CCC3)C1)CC(=O)N1CCCC(CCO2)C1 (stereo partly drawn) [Compound 631, N-((9S,12S)-5^4-methyl-8,11,14-trioxo-9-phenethyl-4-oxa-7,10-diaza-1(3,1)-piperidina-5(1,3)-benzenacyclotetradecaphane-12-yl)spiro[3.3]heptane-2-carboxamide] | < 100 nM | < 100 nM | < 100 nM | < 100 nM | < 100 nM | < 100 nM | – | – | – | –
11 | Cc1ccc2cc1CNC(=O)[C@H](CCc1ccccc1)NC(=O)[C@@H](NC(=O)CCNC(=O)C1CC3CCC1C3)CC(=O)N1CCCC(CCO2)C1 (stereo partly drawn) [Compound 617, N-(3-(((9S,12S)-5^4-methyl-8,11,14-trioxo-9-phenethyl-4-oxa-7,10-diaza-1(3,1)-piperidina-5(1,3)-benzenacyclotetradecaphane-12-yl)amino)-3-oxopropyl)bicyclo[2.2.1]heptane-2-carboxamide] | < 100 nM | < 100 nM | < 100 nM | < 100 nM | < 100 nM | < 100 nM | – | – | – | –
12 | Cc1ccc2cc1CNC(=O)[C@H](CCc1ccccc1)NC(=O)[C@@H](NC(=O)CCOCCC1CCCC1)CC(=O)N1CCCC(CCO2)C1 (stereo partly drawn) [Compound 623, 3-(2-cyclopentylethoxy)-N-((9S,12S)-5^4-methyl-8,11,14-trioxo-9-phenethyl-4-oxa-7,10-diaza-1(3,1)-piperidina-5(1,3)-benzenacyclotetradecaphane-12-yl)propanamide] | < 100 nM | < 100 nM | < 100 nM | < 100 nM | < 100 nM | < 100 nM | – | – | – | –
13 | Cc1ccc2cc1CNC(=O)[C@H](CCc1ccccc1)NC(=O)[C@@H](NC(=O)Cc1ccccc1)CCN(C)C(=O)N1CCCC(CCO2)C1 (stereo partly drawn) [Compound 696, N-((9S,12S)-5^4,15-dimethyl-8,11,16-trioxo-9-phenethyl-4-oxa-7,10,15-triaza-1(3,1)-piperidina-5(1,3)-benzenacyclohexadecaphane-12-yl)-2-phenylacetamide] | < 100 nM | < 100 nM | – | – | – | – | < 100 nM | < 100 nM | < 100 nM | < 100 nM
14 | Cc1ccc2cc1CNC(=O)[C@H](CCc1ccccc1)NC(=O)[C@@H](NC(=O)N1CCCc3cc(N)ccc31)CC(=O)N1CCCC(CCO2)C1 (stereo partly drawn) [Compound 667, 6-amino-N-((9S,12S)-5^4-methyl-8,11,14-trioxo-9-phenethyl-4-oxa-7,10-diaza-1(3,1)-piperidina-5(1,3)-benzenacyclotetradecaphane-12-yl)-3,4-dihydroquinoline-1(2H)-carboxamide] | < 100 nM | < 100 nM | < 100 nM | < 100 nM | < 100 nM | < 100 nM | – | – | – | –
15 | CCN1CCN(C(=O)N[C@H]2CC(=O)N3CCCC(CCOc4ccc(C)c(c4)CNC(=O)[C@H](CCc4ccccc4)NC2=O)C3)CC1 (stereo partly drawn) [Compound 688, 4-ethyl-N-((9S,12S)-5^4-methyl-8,11,14-trioxo-9-phenethyl-4-oxa-7,10-diaza-1(3,1)-piperidina-5(1,3)-benzenacyclotetradecaphane-12-yl)piperazine-1-carboxamide] | < 100 nM | < 100 nM | < 100 nM | < 100 nM | < 100 nM | < 100 nM | – | – | – | –
